According to patent publication US20100075918A1, “HYALURONIDASE INHIBITORS AS ANTI-CANCER AGENTS” (priority 2006, published 2010):

How the values were obtained:
HYAL1-type HAase = biological target: T1, HYAL1-type HAase (Homo sapiens, UniProt Q12794); experiment: HAase ELISA-like assay, inhibition of HYAL1 activity; assay type: biochemical
T1 construct: HYAL1 cDNA encoding the full-length protein inserted into an expression vector; made in house
T1 sequence (Q12794 22-435): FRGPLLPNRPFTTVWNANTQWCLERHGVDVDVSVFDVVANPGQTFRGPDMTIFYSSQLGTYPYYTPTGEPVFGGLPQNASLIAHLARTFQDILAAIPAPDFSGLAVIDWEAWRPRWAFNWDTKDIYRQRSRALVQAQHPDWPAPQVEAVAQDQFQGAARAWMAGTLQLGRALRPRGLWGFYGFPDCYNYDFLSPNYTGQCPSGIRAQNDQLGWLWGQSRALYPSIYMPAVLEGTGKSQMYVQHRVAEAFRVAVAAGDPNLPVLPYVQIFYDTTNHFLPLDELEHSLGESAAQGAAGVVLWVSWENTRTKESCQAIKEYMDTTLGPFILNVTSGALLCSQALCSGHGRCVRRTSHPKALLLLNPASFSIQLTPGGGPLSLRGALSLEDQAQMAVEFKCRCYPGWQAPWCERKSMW
Description: Briefly, a stable HYAL1-expressing clone having about 40 mU/mL activity was expanded in T75 cm^2 flasks.
A microtiter well plate coated with human umbilical cord HA (MP Biomedicals; Irvine, Calif.) was incubated with about 40 mU/mL of HYAL1-type HAase in the presence or absence of various HAase inhibitors in assay buffer. For the HYAL1-type activity assay, 0.1 M sodium formate, 0.15 M NaCl, and 0.02% bovine serum albumin buffer (pH 4.2) was used as the assay buffer.
The effect of HAase inhibitors on the activity of HYAL1-type HAase was tested at 0, 1, 2, 4, 6, 8, 10, 20, 40, 60, 80 and 100 μg/mL concentrations of each inhibitor. […] Each plate was developed for 3 min and the reaction was terminated by adding 3 N HCl. HAase activity (mU/mL) was calculated from a standard graph prepared by plotting known amounts of Streptomyces HAase (10^−4 U/mL) versus (Control (no enzyme) OD405 nm-Sample OD405 nm). […] The data presented are mean ±SEM from duplicate measurements in two independent experiments.

[1] = test system: HYAL1, testicular, honeybee, and Streptomyces hyaluronidases (HAases); conditions: Isoyama et al. (2006); 21 potential inhibitors; cited from earlier work
HYAL1 = biological target: T2, HYAL1 (Homo sapiens, UniProt Q12794); conditions: Isoyama et al. (2006); cited from earlier work
T2 sequence (Q12794 22-435): T1 sequence (Q12794 22-435)

[2] = about 40 mU/mL HYAL1-type HAase, pH 4.2, 37° C. for 16 hours, N.D. = no inhibition detected

CC1(C)[C@@H](O[C@H]2O[C@H](C(=O)O)[C@@H](O)[C@H](O)[C@H]2O[C@@H]2O[C@H](C(=O)O)[C@@H](O)[C@H](O)[C@H]2O)CC[C@]2(C)[C@H]3C(=O)C=C4[C@@H]5C[C@@](C)(C(=O)O)CC[C@]5(C)CC[C@@]4(C)[C@]3(C)CC[C@@H]12 [Glycerrhizic acid, glycerrhizic acid]
IC50 (μg/mL), inhibition of HYAL1 activity (HYAL1-type HAase; [2]): 32.4 µg/mL
Effectiveness as HAase inhibitor [1]: not effective HAase inhibitors

poly(styrene-4-sulfonate) [PSS 6800]
IC50 to inhibit HYAL1 activity, fold higher than that for PSS 999,000 and PSS 17,000 (HYAL1-type HAase): 2.5 fold
IC50 (μg/mL), inhibition of HYAL1 activity (HYAL1-type HAase; [2]): 22.71 µg/mL

poly(styrene-4-sulfonate) [PSS 210]
IC50 for HYAL1 (HYAL1): no inhibition

poly(styrene-4-sulfonate) [PSS 150,000]
IC50 (μg/mL), inhibition of HYAL1 activity (HYAL1-type HAase; [2]): 10.5 µg/mL

O=C([O-])CC([S-])C(=O)[O-].[Au+].[Na+].[Na+] (stereo not drawn) [sodium aurothiomalate]
Effectiveness as HAase inhibitor [1]: not effective HAase inhibitors

poly(styrene-4-sulfonate) [PSS 77,000]
IC50 (μg/mL), inhibition of HYAL1 activity (HYAL1-type HAase; [2]): 14.8 µg/mL

poly(styrene-4-sulfonate) [PSS 350,000]
IC50 (μg/mL), inhibition of HYAL1 activity (HYAL1-type HAase; [2]): 13.15 µg/mL

poly(styrene-4-sulfonate) [PSS 990,000]
IC50 (μg/mL), inhibition of HYAL1 activity (HYAL1-type HAase; [2]): 9.6 µg/mL
IC50 (HYAL1): 0.0096 µM

poly(styrene-4-sulfonate) [PSS 32,000]
IC50 (μg/mL), inhibition of HYAL1 activity (HYAL1-type HAase; [2]): 13.5 µg/mL

poly(styrene-4-sulfonate) [PSS 4300]
IC50 (μg/mL), inhibition of HYAL1 activity (HYAL1-type HAase; [2]): 8.48 µg/mL

Heparin
IC50 (μg/mL), inhibition of HYAL1 activity (HYAL1-type HAase; [2]): 15.1 µg/mL
HYAL1 inhibition (HYAL1): potent inhibitor

poly(styrene-4-sulfonate) [PSS 1400]
IC50 to inhibit HYAL1 activity, fold higher than that for PSS 999,000 and PSS 17,000 (HYAL1-type HAase): 2.5 fold
IC50 (μg/mL), inhibition of HYAL1 activity (HYAL1-type HAase; [2]): 26.8 µg/mL

poly(styrene-4-sulfonate) [PSS 17,000]
IC50 (μg/mL), inhibition of HYAL1 activity (HYAL1-type HAase; [2]): 15.2 µg/mL

poly(styrene-4-sulfonate) [PSS 49,000]
IC50 (μg/mL), inhibition of HYAL1 activity (HYAL1-type HAase; [2]): 15.2 µg/mL

CCCCCCCCCCCCCCS(=O)(=O)O [1-Tetradecane sulfonic acid, 1-tetradecane sulfonic acid]
IC50 (HYAL1-type HAase; about 40 mU/mL HYAL1-type HAase, pH 4.2, 37° C. for 16 hours, N.D. = no inhibition detected, read-out: IC50 (μg/mL), inhibition of HYAL1 activity (converted)): 67.9 µM
Effectiveness as HAase inhibitor [1]: not effective HAase inhibitors
